Consider four compounds from ChEMBL document CHEMBL1938322, “Towards a modern definition of vitamin E-evidence for a quinone hypothesis” (Bioorg Med Chem Lett, 2012).

≈ marks a conversion by molar mass, not a printed value.

What is called GI50 is the concentration giving 50% growth inhibition. A word on the EC50: it is the concentration giving half of the maximal effect. Broadly, the Vd is the apparent volume that relates the amount in the body to the concentration in plasma or blood. A lower Vd goes with confinement near the circulation. Broadly, the AUC(0-inf) is the area under the concentration-time curve extrapolated to infinity. Low readings indicate low exposure, high ones high exposure. Usually half-life stands for the time in which the quantity being followed falls by half. As a reminder, the AUC(0-t) is exposure summed from dosing to a finite time, without extrapolation to infinity. A low value points to low exposure. A word on the Tmax: it is the time at which the peak concentration occurs. What is called Cmax is the highest concentration seen after dosing. In general, clearance refers to a measure of how efficiently the substance is removed, as volume per time. Low readings indicate inefficient removal, high ones efficient removal. As usually defined, the bioavailability is the share of a dose that reaches the circulation, judged against a reference dose that is usually intravenous. Read a high bioavailability as much systemic uptake. What is called solubility is how much of the substance goes into solution per volume. Low readings indicate little dissolved substance, high ones much dissolved substance.

Data set [1] in a line: Growth inhibition of human FRDA primary patient fibroblasts after 48 hrs by calcein-AM-based cell viability assay. Also on record: species or system Fibroblast. To be noted: for GI50 at 48 h: FRDA primary patient fibroblasts.
The subject of data set [2] is Fibroblast. The data set is described as follows: Cytoprotective activity against BSO-induced human FRDA primary patient fibroblasts compound pretreated 12 hrs prior to BSO-induction measured after 48 hrs by calcein-AM-based cell viability assay. Format: functional.
Data set [3] in a line: Therapeutic index, ratio of LC50 to GI50 for human FRDA primary patient fibroblasts. To be noted: for selectivity ratio: FRDA primary patient fibroblasts, read-out: TI. Format: cell-based, Fibroblast.
The nature of data set [4]: Volume of distribution in mouse plasma at 5 mg/kg, iv by HPLC analysis. Type of data set: ADME, organism-based. Also on record: dose 5 mg/kg, route intravenous.
The subject of data set [5] is Fibroblast. The data set is described as follows: Ratio of CoQ10 EC50 to compound EC50 for cytoprotection against BSO-induced human FRDA primary patient fibroblasts. Type of data set: functional.
In data set [6] the target is T1, Cytochrome P450 1A2 (Homo sapiens, UniProt P05177).
T1 sequence (P05177 whole entry): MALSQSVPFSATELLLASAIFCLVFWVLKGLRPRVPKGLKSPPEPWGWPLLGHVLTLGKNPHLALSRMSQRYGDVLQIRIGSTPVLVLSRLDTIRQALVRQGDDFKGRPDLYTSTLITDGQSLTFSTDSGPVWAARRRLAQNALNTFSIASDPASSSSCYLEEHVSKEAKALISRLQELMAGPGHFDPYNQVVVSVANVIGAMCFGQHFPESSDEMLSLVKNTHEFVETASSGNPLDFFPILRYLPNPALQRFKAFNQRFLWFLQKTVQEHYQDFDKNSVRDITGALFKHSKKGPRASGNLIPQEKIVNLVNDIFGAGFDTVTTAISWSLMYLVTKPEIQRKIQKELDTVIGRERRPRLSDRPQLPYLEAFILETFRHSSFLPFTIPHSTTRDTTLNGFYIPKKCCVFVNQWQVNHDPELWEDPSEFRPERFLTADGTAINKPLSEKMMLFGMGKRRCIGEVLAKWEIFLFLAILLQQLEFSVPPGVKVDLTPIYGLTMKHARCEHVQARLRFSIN
Nature of the data set: Inhibition of CYP1A2 at 10 uM. Type of data set: ADME.

The nature of data set [7]: AUC (0 to infinity) in mouse plasma at 10 mg/kg, po by HPLC analysis. Format: ADME, organism-based. Also on record: time infinity, dose 10 mg/kg, route oral.
Data set [8] is described as follows: AUC (0 to infinity) in mouse plasma at 5 mg/kg, iv by HPLC analysis. Type of data set: ADME, organism-based. Also on record: time infinity, dose 5 mg/kg, route intravenous.
Data set [9] is filed under the species Rattus norvegicus. Nature of the data set: Prolongation of partial thromboplastin time in male Wistar rat. Format: ADME, organism-based. The following applies: in vivo.
Data set [10] in a line: Half life in mouse plasma at 5 mg/kg, iv by HPLC analysis. Format: ADME, organism-based. The arrangement: dose 5 mg/kg, route intravenous.
A short description of data set [11]: AUCt in mouse plasma at 10 mg/kg, po by HPLC analysis. Format: ADME, organism-based. Also on record: dose 10 mg/kg, route oral.
Data set [12] has as its target Cytochrome P450 2C19 (Homo sapiens, UniProt P33261). The data set is described as follows: Inhibition of CYP2C19 at 10 uM. Type of data set: ADME.
For data set [13], the target named is Cytochrome P450 2C9 (Homo sapiens, UniProt P11712). The data set is described as follows: Inhibition of CYP2C9 at 10 uM. Format: ADME.
Data set [14] deals with Rattus norvegicus. Nature of the data set: Toxicity in Wistar rat assessed as changes in body weight up to 2000 mg/kg, qd for 14 days. Format: organism-based. The arrangement: dose 2000 mg/kg. The following applies: in vivo, 336 h.
The species entered for data set [15] is Rattus norvegicus. The data set is described as follows: Prolongation of partial thromboplastin time in female Wistar rat. Type of data set: ADME, organism-based. The following applies: in vivo.
In data set [16] the test system is Fibroblast. The data set is described as follows: Ratio of idebenone EC50 to compound EC50 for cytoprotection against BSO-induced human FRDA primary patient fibroblasts. Format: functional.
Data set [17] in a line: AUCt in mouse plasma at 5 mg/kg, iv by HPLC analysis. Format: ADME, organism-based. The arrangement: dose 5 mg/kg, route intravenous.
Data set [18] in a line: Tmax in rat plasma at 100 mg/kg, po by HPLC analysis. Format: ADME, organism-based. The arrangement: dose 100 mg/kg, route oral.
Data set [19] is described as follows: Tmax in mouse plasma at 10 mg/kg, po by HPLC analysis. Also on record: dose 10 mg/kg, route oral. Type of data set: ADME, organism-based.
A short description of data set [20]: AUC (0 to infinity) in rat plasma at 100 mg/kg, po by HPLC analysis. Type of data set: ADME, organism-based. The arrangement: time infinity, dose 100 mg/kg, route oral.
Data set [21] can be described thus: Half life in dog plasma at 25 mg/kg, po by HPLC analysis. Type of data set: ADME, organism-based, Canis lupus familiaris. The arrangement: dose 25 mg/kg, route oral.
The subject of data set [22] is Salmonella typhimurium. Nature of the data set: Mutagenic activity in Salmonella Typhimurium by Ames test. Format: toxicity, organism-based. To be noted: salmonella enterica subsp. enterica serovar typhimurium. (In general: In the Ames test, an excess of revertant colonies over the control signals mutagenicity.)
The nature of data set [23]: Tmax in dog plasma at 25 mg/kg, po by HPLC analysis. Also on record: dose 25 mg/kg, route oral. Format: ADME, organism-based, Canis lupus familiaris.
In data set [24] the target is Cytochrome P450 2D6 (Homo sapiens, UniProt P10635). Nature of the data set: Inhibition of CYP2D6 at 10 uM. Format: ADME.
A short description of data set [25]: Cmax in mouse plasma at 10 mg/kg, po by HPLC analysis. Format: ADME, organism-based. Also on record: dose 10 mg/kg, route oral.
The test system of data set [26] is Fibroblast. The data set is described as follows: Ratio of alpha-tocopherol EC50 to compound EC50 for cytoprotection against BSO-induced human FRDA primary patient fibroblasts. Type of data set: functional.
A short description of data set [27]: Clearance in mouse plasma at 5 mg/kg, iv by HPLC analysis. Type of data set: ADME, organism-based. Also on record: dose 5 mg/kg, route intravenous.
Data set [28] is described as follows: Oral bioavailability in mouse plasma at 10 mg/kg by HPLC analysis. Type of data set: ADME, organism-based.
A short description of data set [29]: AUCt in dog plasma at 25 mg/kg, po by HPLC analysis. Also on record: dose 25 mg/kg, route oral. Format: ADME, organism-based, Canis lupus familiaris.
Data set [30] deals with Rattus norvegicus. The data set is described as follows: Toxicity in Wistar rat assessed as changes in water intake up to 2000 mg/kg, qd for 14 days. Format: organism-based. Also on record: dose 2000 mg/kg. The following applies: in vivo, 336 h.
Data set [31] in a line: AUC (0 to infinity) in dog plasma at 25 mg/kg, po by HPLC analysis. Format: ADME, organism-based, Canis lupus familiaris. The arrangement: time infinity, dose 25 mg/kg, route oral.
Data set [32] can be described thus: Half life in rat plasma at 100 mg/kg, po by HPLC analysis. Format: ADME, organism-based. Also on record: dose 100 mg/kg, route oral.
Data set [33] has as its system Rattus norvegicus. Nature of the data set: Toxicity in Wistar rat assessed as changes in food intake up to 2000 mg/kg, qd for 14 days. Format: organism-based. The arrangement: dose 2000 mg/kg. The following applies: in vivo, 336 h.
Data set [34] can be described thus: Half life in mouse plasma at 10 mg/kg, po by HPLC analysis. Format: ADME, organism-based. Also on record: dose 10 mg/kg, route oral.
Data set [35] is described as follows: Cmax in dog plasma at 25 mg/kg, po by HPLC analysis. Type of data set: ADME, organism-based, Canis lupus familiaris. Also on record: dose 25 mg/kg, route oral.
Data set [36] deals with Cytochrome P450 3A4 (Homo sapiens, UniProt P08684). Nature of the data set: Inhibition of […] at 10 uM. Format: ADME.
Data set [37] can be described thus: Growth inhibition of human primary fibroblasts after 48 hrs by calcein-AM-based cell viability assay. The arrangement: species or system Fibroblast.
A short description of data set [38]: AUCt in rat plasma at 100 mg/kg, po by HPLC analysis. Also on record: dose 100 mg/kg, route oral. Type of data set: ADME, organism-based.
Data set [39] can be described thus: Solubility of the compound. Type of data set: physicochemical.
Data set [40] deals with CHO. The data set is described as follows: Induction of micronucleation in CHO cells. The following applies: chinese hamster. Format: cell-based, Cricetulus griseus.
Data set [41] in a line: Cmax in rat plasma at 100 mg/kg, po by HPLC analysis. Format: ADME, organism-based. The arrangement: dose 100 mg/kg, route oral.

Cytochrome P450 3A4, sequence (P08684 whole entry): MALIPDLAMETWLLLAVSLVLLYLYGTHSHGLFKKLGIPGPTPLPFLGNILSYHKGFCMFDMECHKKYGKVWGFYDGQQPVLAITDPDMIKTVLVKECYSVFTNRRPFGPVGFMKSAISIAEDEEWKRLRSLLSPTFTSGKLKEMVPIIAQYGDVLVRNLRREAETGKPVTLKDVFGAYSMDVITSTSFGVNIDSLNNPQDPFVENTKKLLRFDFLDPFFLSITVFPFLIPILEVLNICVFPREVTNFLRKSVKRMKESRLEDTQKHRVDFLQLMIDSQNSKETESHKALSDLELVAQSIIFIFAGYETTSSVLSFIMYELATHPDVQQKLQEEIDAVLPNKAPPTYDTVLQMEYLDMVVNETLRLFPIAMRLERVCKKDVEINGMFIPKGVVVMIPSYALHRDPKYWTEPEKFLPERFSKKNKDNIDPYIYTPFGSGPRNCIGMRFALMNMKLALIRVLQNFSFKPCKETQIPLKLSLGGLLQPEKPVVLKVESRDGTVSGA
Cytochrome P450 2C9, sequence (P11712 whole entry): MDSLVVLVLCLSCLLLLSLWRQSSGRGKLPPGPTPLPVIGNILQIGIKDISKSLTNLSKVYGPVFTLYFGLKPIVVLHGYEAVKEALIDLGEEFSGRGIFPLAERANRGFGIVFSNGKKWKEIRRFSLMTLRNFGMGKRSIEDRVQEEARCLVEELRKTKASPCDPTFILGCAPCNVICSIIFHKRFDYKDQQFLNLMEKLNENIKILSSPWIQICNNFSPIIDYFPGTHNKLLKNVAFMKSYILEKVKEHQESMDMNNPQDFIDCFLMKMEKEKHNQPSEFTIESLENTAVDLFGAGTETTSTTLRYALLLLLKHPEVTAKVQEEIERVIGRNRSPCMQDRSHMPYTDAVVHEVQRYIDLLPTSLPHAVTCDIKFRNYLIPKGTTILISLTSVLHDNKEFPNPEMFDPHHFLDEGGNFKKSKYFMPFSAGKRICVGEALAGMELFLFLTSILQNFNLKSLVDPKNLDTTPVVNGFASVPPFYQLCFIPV
Cytochrome P450 2C19, sequence (P33261 whole entry): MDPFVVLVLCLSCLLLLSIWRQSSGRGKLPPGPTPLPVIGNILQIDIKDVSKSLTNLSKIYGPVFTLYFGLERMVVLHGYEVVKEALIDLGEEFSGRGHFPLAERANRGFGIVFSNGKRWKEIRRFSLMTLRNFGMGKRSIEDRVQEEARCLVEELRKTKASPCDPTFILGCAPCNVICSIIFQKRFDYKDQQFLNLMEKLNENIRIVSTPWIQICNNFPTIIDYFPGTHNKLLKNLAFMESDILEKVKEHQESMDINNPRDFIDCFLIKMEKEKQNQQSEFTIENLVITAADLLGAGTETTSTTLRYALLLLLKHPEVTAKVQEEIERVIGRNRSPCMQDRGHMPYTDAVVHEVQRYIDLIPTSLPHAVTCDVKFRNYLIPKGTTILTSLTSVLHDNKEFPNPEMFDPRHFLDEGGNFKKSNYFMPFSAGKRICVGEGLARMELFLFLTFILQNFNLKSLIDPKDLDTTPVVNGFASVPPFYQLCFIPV
Cytochrome P450 2D6, sequence (P10635 whole entry): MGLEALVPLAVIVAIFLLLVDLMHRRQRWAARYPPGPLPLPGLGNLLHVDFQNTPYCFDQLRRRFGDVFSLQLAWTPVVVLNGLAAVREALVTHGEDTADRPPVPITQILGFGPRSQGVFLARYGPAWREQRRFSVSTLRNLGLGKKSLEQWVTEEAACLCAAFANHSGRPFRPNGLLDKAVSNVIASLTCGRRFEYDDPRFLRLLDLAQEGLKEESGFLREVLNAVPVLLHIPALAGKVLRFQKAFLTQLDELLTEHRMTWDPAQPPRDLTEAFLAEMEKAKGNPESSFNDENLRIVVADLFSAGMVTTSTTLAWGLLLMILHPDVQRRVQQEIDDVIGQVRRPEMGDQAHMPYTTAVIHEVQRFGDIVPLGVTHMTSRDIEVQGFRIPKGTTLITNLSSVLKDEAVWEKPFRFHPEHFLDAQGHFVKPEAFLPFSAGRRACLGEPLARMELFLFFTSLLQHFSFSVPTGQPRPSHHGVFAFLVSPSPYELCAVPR

In the case of VITAMIN E, the GI50 in [1] (fibroblast, 48 h) was not below 300 µM. In data set [2] (fibroblast), the EC50 was 0.234 µM. The TI entry in data set [3] (fibroblast) is recorded as “>= 1282”.
Consider `COC1=C(OC)C(=O)C(CCCCCCCCCCO)=C(C)C1=O` [IDEBENONE], for which the GI50 at 48 h in [1] was 98 µM. In addition, the EC50 in data set [2] (Homo sapiens, Fibroblast) was 0.592 µM. Further, in data set [3], the selectivity ratio turned out to be 165.
With `CC1=C(C)C(=O)C(CC[C@](C)(O)CCC[C@H](C)CCC[C@H](C)CCCC(C)C)=C(C)C1=O`, in data set [4], the Vd is 27.6 L/kg. The “Ratio EC50” value is recorded as 200 in [5], 35 in [16] and 7 in data set [26]. The “inhibition (INH)” value in data set [6], in data set [12], in [13], in data set [24] and in [36] was “Not Active” each time. Moreover, the AUC(0-inf) in data set [7] amounted to 2070 ng·h/mL; in [8], 4240 ng·h/mL; in data set [20] it was 27900 ng·h/mL; in [31], 16800 ng·h/mL. Moreover, the Activity entry is “Dose-dependent effect” in [9]; “Non-toxic” in data set [14]; “Dose-dependent effect” in data set [15]; “Dose-dependent effect” in [2]; “Non-toxic” in [22]; “Non-toxic” in data set [30]. In addition, the Activity result in [33] and in data set [40] was “Non-toxic” throughout. In addition, the half-life was 16.2 h in data set [10], 23.7 h in data set [21], 16.6 h in data set [32] and 5.8 h in [34]. The AUC(0-t) in data set [11] was found to be 1980 ng·h/mL; in [17], 3980 ng·h/mL; in data set [29], 14200 ng·h/mL; in [38] it was 26400 ng·h/mL. The GI50 at 48 h in data set [1] and in data set [37] was not below 300 µM in each case. The concentration for a half-maximal effect (EC50) in data set [2] (Homo sapiens, Fibroblast) is 0.036 µM. For the same compound, the selectivity ratio in data set [3] was not below 8330. The Tmax in data set [18] worked out at 4 h; in data set [19], 1 h; in data set [23], 2 h. Further, the Cmax turned out to be 519 ng/mL in [25], 2370 ng/mL in data set [35] and 3010 ng/mL in [41]. Also, the clearance in [27] is 20 mL/min/kg. The same compound had a bioavailability in data set [28] of 24%. For the same compound, the solubility in data set [39] is 10 µM (≈ 4.47 µg/mL).
For the compound `COC1=C(OC)C(=O)C(C/C=C(\C)CC/C=C(\C)CC/C=C(\C)CC/C=C(\C)CC/C=C(\C)CC/C=C(\C)CC/C=C(\C)CC/C=C(\C)CC/C=C(\C)CCC=C(C)C)=C(C)C1=O` [UBIDECARENONE], the GI50 at 48 h in data set [1] is 220 µM.
